# Reference: US20250145628A1, “PYRAZOLOPYRIMIDINES, COMPOSITIONS COMPRISING THEM AND USES THEREOF” (Novo Nordisk A/S, priority 2022, published 2025)
# Columns and labels:
# human CB1 receptor [1] = target: T1, human CB1 receptor (Homo sapiens, UniProt P21554); assay: bioSensAll GAPL-Gi2 BRET biosensor assay (antagonism of CP-55,940); assay type: cell-based; conditions: HEK293 cells transfected with hCB1 and GAPL-Gi2 biosensor, EC75 of CP-55,940 (0.1 nM), overnight incubation, read-out: CB1 wt Gi2 IC50
# T1 construct: expressed in transfected cells; host or cells: HEK293
# T1 sequence (P21554 whole entry): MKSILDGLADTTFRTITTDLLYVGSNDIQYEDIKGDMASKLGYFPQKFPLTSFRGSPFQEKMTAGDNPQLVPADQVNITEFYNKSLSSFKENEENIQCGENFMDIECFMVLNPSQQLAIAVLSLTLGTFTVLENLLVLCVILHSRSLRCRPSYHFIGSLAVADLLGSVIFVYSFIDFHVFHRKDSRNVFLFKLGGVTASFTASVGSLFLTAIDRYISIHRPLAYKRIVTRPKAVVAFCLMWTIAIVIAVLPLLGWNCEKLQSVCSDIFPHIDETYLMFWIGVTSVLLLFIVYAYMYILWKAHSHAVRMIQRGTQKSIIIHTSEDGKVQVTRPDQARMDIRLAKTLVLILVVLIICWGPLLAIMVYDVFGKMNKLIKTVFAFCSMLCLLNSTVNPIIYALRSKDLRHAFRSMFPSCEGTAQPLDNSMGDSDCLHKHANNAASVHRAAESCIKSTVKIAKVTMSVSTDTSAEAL
# Description: (§1) Using polyethylenimine (PEI) transfection agent, HEK293 cells were transfected in suspension with the human CB1 or CB1b receptor and one of the following bioSensAll® assays: GAPL-Gi2, or β-arrestin plasma membrane (PM) translocation biosensor (+GRK2). Cells were directly seeded in 96-well plates immediately following transfection.
# (§2) Cells were incubated with coelenterazine (luciferase substrate) and different test compounds prior to the measurement of BRET signals.
# i) GAPL sensors are used to monitor the activation of heterotrimeric G proteins at the plasma membrane upon receptor stimulation. Specifically, these multimolecular BRET sensors detect the plasma membrane recruitment of proteins that interact with active Ga subunits in a G protein family-selective manner. G protein activation following receptor stimulation generally leads to an increase in the BRET signal.
# (§3) HEK293 cells were maintained in Dulbecco's Modified Eagle Medium (DMEM) (Wisent; cat #319-030-CL: without sodium pyruvate, with 4.5 g/L glucose, without L-glutamine) supplemented with 1% penicillin-streptomycin (Wisent; cat #450-201-EL) and 2 or 10% fetal bovine serum (Wisent cat #090150).
# (§4) HEK293 cells were co-transfected with hCB1 or hCB1b and one of the above-listed bioSensAll® assays. For each transfection condition: • the total amount of transfected DNA was kept constant at 1 μg per mL of cell culture to be transfected; whenever necessary, salmon sperm DNA (Invitrogen, cat #15632011) was used as ‘carrier’ DNA to supplement plasmid DNA (i.e., biosensor and receptor); • the PEI (polyethylenimine 25 kDa linear, PolyScience, cat #23966) to DNA ratio (ug:ug) was fixed at 3:1.
# (§5) Transfections were carried out as follows: • DNA and PEI were first diluted separately in 150 mM NaCl. The volume of the diluent in each tube corresponds to 5% of the cell culture volume to be transfected. • Once DNA and PEI were diluted, the PEI-containing solution was added to the DNA solution and the DNA/PEI mixture immediately vortexed for 5 seconds. • The DNA/PEI mixture was incubated for at least 20 minutes at room temperature to allow for the formation of DNA/PEI complexes. • During the incubation, HEK293 cells were detached, counted and re-suspended in culture medium (composition specified above). • At the end of the incubation period, the DNA/PEI mixture was added to the cells. • Cells were finally distributed in 96-well plates (White Opaque 96-well/Microplates, Greiner, cat #655083 or CulturPlate-96, White Opaque 96-well Microplate, PerkinElmer, cat #6005688) at a density of 30 000 cells per well.
# (§6) At ˜48 hours post-transfection: • Using 450-Select TS Biotek plate washer, culture medium was aspirated and replaced with 100 μl of Hank's Balanced Salt Solution buffer (HBSS) (Wisent, cat #319-067CL: without red phenol; with sodium bicarbonate, with calcium and magnesium, with HEPES) per well. This process was performed a total of two times (i.e., 2 washes). • After the washing step, the HP D300 digital dispenser (Tecan) was used to inject increasing doses (12) of test compounds (ranging from 0-600 nM) to wells. Three to five minutes later, an EC75 of CP-55,940 (0.1 nM for GAPL-Gi2 assay; 100 nM for β-arrestin PM translocation biosensor (+GRK2)) was added to columns 2-12 of each 96-well plate.
# (§7) BRET signals were determined by calculating the ratio of light emitted by GFP-acceptor (515 nm) over light emitted by luciferase-donor (400 nm). All BRET ratios were standardized using the equation below with pre-established BRET values for positive and negative controls. The standardized BRET ratio is referred to as universal BRET (uBRET).
# (§8) Resulting dose-response curves were fitted using the four-parameter logistic non-linear regression model in GraphPad Prism 9.
# human CB1 receptor [2] = target: T1, human CB1 receptor; assay: bioSensAll β-arrestin plasma membrane translocation BRET biosensor (+GRK2) assay (antagonism of CP-55,940); assay type: cell-based; conditions: HEK293 cells transfected with hCB1 and β-arrestin PM translocation biosensor (+GRK2), EC75 of CP-55,940 (100 nM), overnight incubation, read-out: CB1 wt βarr2 IC50
# Description: as §1, §2
# ii) The multimolecular β-arrestin membrane recruitment biosensors allow for real-time spatio-temporal monitoring of β-arrestin 1 and β-arrestin 2 following GPCR activation. Specifically, these β-arrestin sensors were designed to detect the recruitment of proteins to the plasma membrane (β-arrestin PM) with localization to compartment resulting in an increased BRET signal.
# as §3, §4, §5, §6, §7, §8
Structure (SMILES),IC50 (human CB1 receptor [1]) [nM],IC50 (human CB1 receptor [2]) [nM]
"CCNC1(C(N)=O)CCN(c2cc(N3CCC[C@H]3CO)nc3c(-c4ccc(Cl)cc4)c(-c4ccccc4Cl)nn23)CC1 [Compound 1, 1-[2-(2-chlorophenyl)-3-(4-chlorophenyl)-5-[(2S)-2-(hydroxymethyl)pyrrolidin-1-yl]pyrazolo[1,5-a]pyrimidin-7-yl]-4-(ethylamino)piperidine-4-carboxamide]",1.2,4.31
"OC[C@@H]1CCCN1c1cc(N2CCC(C(F)(F)F)CC2)n2nc(-c3ccccc3Cl)c(-c3ccc(Cl)cc3)c2n1 [Compound 2, [(2S)-1-[2-(2-chlorophenyl)-3-(4-chlorophenyl)-7-[4-(trifluoromethyl)-1-piperidyl]pyrazolo[1,5-a]pyrimidin-5-yl]pyrrolidin-2-yl]methanol]",1.28,5.27
"COc1ccccc1-c1nn2c(-c3cccc(C#N)c3)cc(N3CCC[C@H]3CO)nc2c1-c1ccc(Cl)cc1 [Compound 3, 3-[3-(4-chlorophenyl)-5-[(2S)-2-(hydroxymethyl)pyrrolidin-1-yl]-2-(2-methoxyphenyl)pyrazolo[1,5-a]pyrimidin-7-yl]benzonitrile]",1.77,9.94
"O=S(=O)(N1CCN(c2cc(N3CCC[C@H]3CO)nc3c(-c4ccc(Cl)cc4)c(-c4ccccc4Cl)nn23)CC1)C(F)(F)F [Compound 7, [(2S)-1-[2-(2-chlorophenyl)-3-(4-chlorophenyl)-7-[4-(trifluoromethylsulfonyl)piperazin-1-yl]pyrazolo[1,5-a]pyrimidin-5-yl]pyrrolidin-2-yl]methanol]",1.55,3.31
"OC[C@@H]1CCCN1c1cc(-c2ccc(C(F)(F)F)nc2)n2nc(-c3ccccc3Cl)c(-c3ccc(Cl)cc3)c2n1 [Compound 8, [(2S)-1-[2-(2-chlorophenyl)-3-(4-chlorophenyl)-7-[6-(trifluoromethyl)-3-pyridyl]pyrazolo[1,5-a]pyrimidin-5-yl]pyrrolidin-2-yl]methanol]",1.8,4.41
"O=S1(=O)CCC(Nc2cc(N3CCC[C@H]3CO)nc3c(-c4ccc(Cl)cc4)c(-c4ccccc4Cl)nn23)CC1 [Compound 11, [(2S)-1-[2-(2-chlorophenyl)-3-(4-chlorophenyl)-7-[(1,1-dioxothian-4-yl)amino]pyrazolo[1,5-a]pyrimidin-5-yl]pyrrolidin-2-yl]methanol]",0.481,1.33
"CC(C)Oc1cc(N(C)CCO)nc2c(-c3ccc(Cl)cc3)c(-c3ccccc3Cl)nn12 [Compound 12, 2-[[2-(2-chlorophenyl)-3-(4-chlorophenyl)-7-isopropoxy-pyrazolo[1,5-a]pyrimidin-5-yl]-methyl-amino]ethanol]",1.69,16.8
"CC(C)(O)COc1cc(N2CCC(C)(C(N)=O)CC2)n2nc(-c3ccccc3Cl)c(-c3ccc(Cl)cc3)c2n1 [Compound 13, 1-[2-(2-chlorophenyl)-3-(4-chlorophenyl)-5-(2-hydroxy-2-methyl-propoxy)pyrazolo[1,5-a]pyrimidin-7-yl]-4-methyl-piperidine-4-carboxamide]",1.26,3.51
"CC(C)(O)COc1cc(N2CCC(C)(O)CC2)n2nc(-c3ccccc3Cl)c(-c3ccc(Cl)cc3)c2n1 [Compound 14, 1-[2-(2-chlorophenyl)-3-(4-chlorophenyl)-5-(2-hydroxy-2-methyl-propoxy)pyrazolo[1,5-a]pyrimidin-7-yl]-4-methyl-piperidin-4-ol]",2.52,9.25
"CC(C)(O)COc1cc(N2CCC[C@H](C(N)=O)C2)n2nc(-c3ccccc3Cl)c(-c3ccc(Cl)cc3)c2n1 [Compound 17(S), (3S)-1-[2-(2-chlorophenyl)-3-(4-chlorophenyl)-5-(2-hydroxy-2-methyl-propoxy)pyrazolo[1,5-a]pyrimidin-7-yl]piperidine-3-carboxamide]",9.09,40.4

# More lines, in order of falling IC50 (human CB1 receptor [1]), values ahead:
IC50 (human CB1 receptor [1]) [nM],IC50 (human CB1 receptor [2]) [nM],Structure (SMILES)
17.1,49.8,"CC(C)(O)COc1cc(N2CCC[C@@H](C(N)=O)C2)n2nc(-c3ccccc3Cl)c(-c3ccc(Cl)cc3)c2n1 [Compound 17(R), 1-[2-(2-chlorophenyl)-3-(4-chlorophenyl)-5-(2-hydroxy-2-methyl-propoxy)pyrazolo[1,5-a]pyrimidin-7-yl]piperidine-3-carboxamide]"
14.1,146,"COc1ccccc1-c1nn2c(-c3ccc(C(F)(F)F)cc3)cc(N3CCC[C@H]3CO)nc2c1-c1ccc(Cl)cc1 [Compound 6, [(2S)-1-[3-(4-chlorophenyl)-2-(2-methoxyphenyl)-7-[4-(trifluoromethyl)phenyl]pyrazolo[1,5-a]pyrimidin-5-yl]-pyrrolidin-2-yl]methanol]"
5.91,13.3,"CC(C)(O)COc1cc(N2CCN(S(C)(=O)=O)CC2)n2nc(-c3ccccc3Cl)c(-c3ccc(Cl)cc3)c2n1 [Compound 16, 1-[2-(2-chlorophenyl)-3-(4-chlorophenyl)-7-(4-methylsulfonylpiperazin-1-yl)pyrazolo[1,5-a]pyrimidin-5-yl]oxy-2-methyl-propan-2-ol]"
4.04,10.6,"OC[C@@H]1CCCN1c1cc(-c2ccc(C(F)(F)F)cc2)n2nc(-c3ccccc3Cl)c(-c3ccc(Cl)cc3)c2n1 [Compound 4, [(2S)-1-[2-(2-chlorophenyl)-3-(4-chlorophenyl)-7-[4-(trifluoromethyl)phenyl]pyrazolo[1,5-a]pyrimidin-5-yl]pyrrolidin-2-yl]methanol]"
3.97,9.55,"CC(C)(O)COc1cc(N2CCN(S(=O)(=O)C(F)(F)F)CC2)n2nc(-c3ccccc3Cl)c(-c3ccc(Cl)cc3)c2n1 [Compound 15, 1-[2-(2-chlorophenyl)-3-(4-chlorophenyl)-7-[4-(trifluoromethylsulfonyl)piperazin-1-yl]pyrazolo[1,5-a]pyrimidin-5-yl]oxy-2-methyl-propan-2-ol]"
3.69,8.6,"COc1ccc(-c2cc(N3CCC[C@H]3CO)nc3c(-c4ccc(Cl)cc4)c(-c4ccccc4Cl)nn23)cc1 [Compound 5, [(2S)-1-[2-(2-chlorophenyl)-3-(4-chlorophenyl)-7-(4-methoxyphenyl)pyrazolo-[1,5-a]pyrimidin-5-yl]pyrrolidin-2-yl]methanol]"
0.351,1.84,"CC1(C(N)=O)CCN(c2cc(N3CCC[C@H]3CO)nc3c(-c4ccc(Cl)cc4)c(-c4ccccc4Cl)nn23)CC1 [Compound 9, 1-[2-(2-chlorophenyl)-3-(4-chlorophenyl)-5-[(2S)-2-(hydroxymethyl)pyrrolidin-1-yl]pyrazolo[1,5-a]pyrimidin-7-yl]-4-methyl-piperidine-4-carboxamide]"
0.255,1.74,"CN(CCO)c1cc(N2CCC(C)(C(N)=O)CC2)n2nc(-c3ccccc3Cl)c(-c3ccc(Cl)cc3)c2n1 [Compound 10, 1-[2-(2-chlorophenyl)-3-(4-chlorophenyl)-5-[2-hydroxyethyl(methyl)amino]pyrazolo[1,5-a]pyrimidin-7-yl]-4-methyl-piperidine-4-carboxamide]"
